Data as given in patent US8759334B2, “Compounds useful for the treatment of metabolic and inflammatory diseases” (Galapagos NV, priority 2011, dated 2014).

molecular target: T1, GPR43 (Homo sapiens, UniProt O15552); assay: Calcium mobilization assay with probenecid; type: cell-based; conditions: GPR43 stably expressing cells; triggered with sodium acetate at EC80; 2.5 mM probenecid; read-out: GPR43 assay with probenicid IC50
T1 construct: expressed in transfected cells
T1 sequence (O15552 1-330): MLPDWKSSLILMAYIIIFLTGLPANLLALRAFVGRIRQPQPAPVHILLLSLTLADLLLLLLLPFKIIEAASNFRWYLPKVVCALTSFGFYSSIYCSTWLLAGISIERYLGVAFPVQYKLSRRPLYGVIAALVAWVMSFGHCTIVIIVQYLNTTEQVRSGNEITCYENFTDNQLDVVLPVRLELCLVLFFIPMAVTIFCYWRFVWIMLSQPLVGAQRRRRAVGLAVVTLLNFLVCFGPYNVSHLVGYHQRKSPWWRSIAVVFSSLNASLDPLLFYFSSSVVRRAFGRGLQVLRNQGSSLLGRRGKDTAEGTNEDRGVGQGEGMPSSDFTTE
Experimental: The following assay can be used for determination of GPR43 activation. The assay measures intracellular calcium release induced by activation of GPR43. On day 1, GPR43 stably expressing cells were detached with mild trypsinization (Trypsin, 0.25% with EDTA 4Na, 5× diluted in PBS) centrifuged at 1000 rpm for 5 min and resuspended at 6.000 cells/25 […] medium (DMEM supplemented with 10% FBS, 10 μg/mL puromycin and 1% Pen/Strep). The cells were distributed in poly-D-lysine coated 384 well plates (black with clear bottom, 25 μL/well) and incubated overnight at 37° C. 10% CO2.
On day 2, 25 μL of a fluorescent Ca^2+ indicator (Calcium 4 assay; Molecular Devices) supplemented with 2.5 mM probenecid was added on top of the cells and incubated for 2 h at 37° C. Subsequently, compounds at increasing concentration (10 μL/well) were added to the plate and incubated for 15 min at 37° C.
To measure agonist activity of the compounds, compound was added to the well and the Ca^2+-flux was measured simultaneously to the […] of compound.

Row | SMILES | IC50
1 | CN(Cc1ccc(Cl)cc1)C(=O)C1(C)CCN1C(=O)Cc1cc(F)cc(F)c1 (stereo not shown) [Compound 19, 1-[2-(3,5-Difluoro-phenyl)-acetyl]-2-methyl-azetidine-2-carboxylic acid (4-chloro-benzyl)-methyl-amide] | > 1000 nM
2 | Cc1cc(C)cc(CC(=O)N2CCC2(C)C(=O)N(C)Cc2cccc(Br)c2)c1 (stereo not shown) [Compound 39, 1-[2-(3,5-Dimethyl-phenyl)-acetyl]-2-methyl-azetidine-2-carboxylic acid (3-bromo-benzyl)-methyl-amide] | > 1000 nM
3 | Cc1ccc(C)c(CC(=O)N2CCC2(C)C(=O)N(C)Cc2ccc(Cl)cc2)c1 (stereo not shown) [Compound 41, 1-[2-(2,5-Dimethyl-phenyl)-acetyl]-2-methyl-azetidine-2-carboxylic acid (4-chloro-benzyl)-methyl-amide] | > 1000 nM
4 | Cc1cc(C)cc(CC(=O)N2CCC2(C)C(=O)N(Cc2ccc(Cl)cc2)Cc2nnn[nH]2)c1 (stereo not shown) [Compound 76, 1-[2-(3,5-Dimethyl-phenyl)-acetyl]-2-methyl-azetidine-2-carboxylic acid (4-chloro-benzyl)-(1H-tetrazol-5-ylmethyl)-amide] | > 1000 nM
5 | CN(Cc1ccc(Cl)cc1)C(=O)C1(C)CCN1C(=O)Cc1cccc2sccc12 (stereo not shown) [Compound 105, 1-(2-Benzo[b]thiophen-4-yl-acetyl)-2-methyl-azetidine-2-carboxylic acid (4-chloro-benzyl)-methyl-amide] | > 1000 nM
6 | CN(Cc1ccc(Cl)cc1)C(=O)C1(C)CCN1C(=O)Cc1ccc(F)c2ccccc12 (stereo not shown) [Compound 106, 1-[2-(4-Fluoro-naphthalen-1-yl)-acetyl]-2-methyl-azetidine-2-carboxylic acid (4-chloro-benzyl)-methyl-amide] | > 1000 nM
7 | Cc1cc(C)cc(CC(=O)N2CCC2(C)C(=O)N(CCc2noc(O)n2)Cc2ccc(Cl)cc2)c1 (stereo not shown) [Compound 107, 1-[2-(3,5-Dimethyl-phenyl)-acetyl]-2-methyl-azetidine-2-carboxylic acid (4-chloro-benzyl)-[2-(5-hydroxy-[1,2,4]oxadiazol-3-yl)-ethyl]-amide] | > 1000 nM
8 | CN(Cc1ccc(Cl)cc1)C(=O)C1(C)CCN1C(=O)Cc1cc2ccccc2s1 (stereo not shown) [Compound 108, 1-(2-Benzo[b]thiophen-2-yl-acetyl)-2-methyl-azetidine-2-carboxylic acid (4-chloro-benzyl)-methyl-amide] | > 1000 nM

The next lines start with the values.

Row | IC50 | SMILES
9 | 501 to 1000 nM | COC(=O)[C@@H](C)N(Cc1ccc(Cl)cc1)C(=O)C1(C)CCN1C(=O)Cc1cc(C)cc(C)c1 (stereo partly drawn) [Compound 73, (R)-2-((4-Chloro-benzyl)-{1-[2-(3,5-dimethyl-phenyl)-acetyl]-2-methyl-azetidine-2-carbonyl}-amino)-propionic acid methyl ester]
10 | 101 to 500 nM | Cc1cc(C)cc(CC(=O)N2CCC2(C)C(=O)N(CC(=O)NC2CC2)Cc2ccc(Cl)cc2)c1 (stereo not shown) [Compound 81, 1-[2-(3,5-Dimethyl-phenyl)-acetyl]-2-methyl-azetidine-2-carboxylic acid (4-chloro-benzyl)-cyclopropylcarbamoylmethyl-amide]
11 | 101 to 500 nM | CC1(C(=O)N(CCCC#N)Cc2ccc(Cl)cc2)CCN1C(=O)Cc1csc2ccccc12 (stereo not shown) [Compound 99, 1-(2-Benzo[b]thiophen-3-yl-acetyl)-2-methyl-azetidine-2-carboxylic acid (4-chloro-benzyl)-(3-cyano-propyl)-amide]
12 | 501 to 1000 nM | Cc1cc(C)cc(CC(=O)N2CCC2(C)C(=O)N(CC(=O)NS(=O)(=O)c2ccccc2)Cc2ccc(Cl)cc2)c1 (stereo not shown) [Compound 104, 1-[2-(3,5-Dimethyl-phenyl)-acetyl]-2-methyl-azetidine-2-carboxylic acid (2-benzenesulfonylamino-2-oxo-ethyl)-(4-chloro-benzyl)-amide]
13 | 101 to 500 nM | Cc1cc(C)cc(CC(=O)N2CCC2(C)C(=O)N(CCc2nnn[nH]2)Cc2ccc(Cl)cc2)c1 (stereo not shown) [Compound 109, 1-[2-(3,5-Dimethyl-phenyl)-acetyl]-2-methyl-azetidine-2-carboxylic acid (4-chloro-benzyl)-[2-(1H-tetrazol-5-yl)-ethyl]-amide]
